The target of one data set is T1, human recombinant HDAC1 (Homo sapiens, UniProt Q13547).
T1 construct: purified recombinant human full length HDAC1 (cat# 50051); purchased BPS Bioscience (San Diego, CA) 50051
The data set can be described thus: Two-step fluorogenic deacetylase assay, recombinant HDAC1. In kind it is biochemical. An excerpt: (§1) To assess the biochemical and cellular potency of 4b and its conversion products/metabolites, we utilized the two-step fluorogenic assay which measures the HDAC-mediated catalytic conversion of synthetic acetylated lysine substrates. In brief, on deacetylation of the substrates by HDAC activity, a protease site is unmasked which allows subsequent trypsin-mediated cleavage and release of the highly flourescent AMC molecules in a subsequent step of the assay. The substrates used were Lys_Ac_AMC (Bachem I-1875) for HDAC3 and (Ac)Arg-Gly-Lys(Ac) (Bachem I-1925) for HDAC1 and HDAC2. […] However, the relatively labile and sterically more demanding trifluoracetyl group is readily hydrolyzed by the catalytically less avid Class IIa enzymes, allowing measurement of Class IIa activity using the 2-step fluorogenic assay. […]
(§2) For evaluation of the class selectivity of the compounds, we assessed inhibition against purified recombinant human full length HDAC1 (cat# 50051), HDAC2 (cat# 50052), HDAC3-NcoR2 (cat# 50003) and HDAC8 (cat# 50008): as representative of Class I activity; catalytic domain HDAC4(αα 648–1057), HDAC5 (αα 657–1123; cat # 50005), HDAC7 (αα 518-end; cat # 50007) and HDAC9 (αα 604–1066; cat # 50009) activity: representing all Class IIa activity; and full length HDAC6 (cat#50006): representing Class IIb activity. […]

For a further data set, the target named is T2, human recombinant HDAC8 (Homo sapiens, UniProt Q9BY41).
T2 construct: purified recombinant human full length HDAC1 (cat# 50051), HDAC2 (cat# 50052), HDAC3-NcoR2 (cat# 50003) and HDAC8 (cat# 50008); purchased BPS Bioscience (San Diego, CA) 50008
The data set can be described thus: Two-step fluorogenic deacetylase assay, recombinant HDAC8. In kind it is biochemical. The settings on record: up to 50 µM.
From the text: as §1, §2

The nature of data set [1]: Simulated gastric fluid stability. Type of data set: in vitro ADME. As to the method:
Simulated gastric fluid (SGF), pH 1.2, was prepared containing 2 g/L sodium chloride, 3.2 g/L of pepsin, 0.7% (v/v) HCl. Gastric buffer, pH 1.2, was also prepared containing 2 g/L sodium chloride and 0.7% (v/v) HCl. Test compound (10 µM) was added to both fluids and samples were mixed at room temperature on an orbital shaker. At each time-point (0, 2 and 4 h) 50 µL of sample was added to 150 µL DMSO, mixed and analysed immediately. Samples were analysed by LC-UV (λ = 254 nm. The instrument responses (i.e. chromatographic peak areas) were referenced to the zero time-point samples (as 100%) in order to determine the percentage of compound remaining at each time-point.

T1 sequence (Q13547 whole entry): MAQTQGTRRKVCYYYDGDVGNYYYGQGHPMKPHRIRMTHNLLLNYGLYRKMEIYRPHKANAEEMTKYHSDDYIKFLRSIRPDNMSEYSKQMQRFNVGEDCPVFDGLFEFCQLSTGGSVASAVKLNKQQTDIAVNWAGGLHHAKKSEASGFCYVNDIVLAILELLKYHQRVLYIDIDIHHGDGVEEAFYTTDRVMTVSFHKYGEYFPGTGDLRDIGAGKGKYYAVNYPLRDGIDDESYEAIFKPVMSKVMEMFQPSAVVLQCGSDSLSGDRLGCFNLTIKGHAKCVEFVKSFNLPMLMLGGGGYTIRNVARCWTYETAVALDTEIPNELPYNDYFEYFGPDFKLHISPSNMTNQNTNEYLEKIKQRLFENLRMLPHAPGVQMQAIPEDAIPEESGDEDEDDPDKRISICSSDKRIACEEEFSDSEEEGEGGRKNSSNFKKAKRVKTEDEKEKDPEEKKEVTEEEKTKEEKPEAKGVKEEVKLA
T2 sequence (Q9BY41 whole entry): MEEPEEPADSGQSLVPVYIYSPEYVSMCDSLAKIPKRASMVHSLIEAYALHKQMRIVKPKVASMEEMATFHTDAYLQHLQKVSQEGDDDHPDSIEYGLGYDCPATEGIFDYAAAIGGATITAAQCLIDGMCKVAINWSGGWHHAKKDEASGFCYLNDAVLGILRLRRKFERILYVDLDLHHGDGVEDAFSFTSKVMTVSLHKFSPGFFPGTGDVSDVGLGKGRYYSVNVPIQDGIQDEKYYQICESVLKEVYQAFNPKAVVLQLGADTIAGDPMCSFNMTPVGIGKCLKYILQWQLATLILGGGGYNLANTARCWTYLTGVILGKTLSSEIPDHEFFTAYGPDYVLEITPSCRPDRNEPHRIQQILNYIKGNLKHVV

Consider `Nc1ccccc1NC(=O)CCCCCC(=O)Nc1ccccc1` [Compound 4b], for which the IC50 at human recombinant HDAC1 is 1510 nM. Moreover, the “activity against HDAC8” value at human recombinant HDAC8 was “No activity”. Also, the “turnover in simulated gastric fluid” value in data set [1] (in 4 h) is reported as 5%. Further, the half-life at 10 µM in data set [1] (simulated gastric fluid (SGF), pH 1.2) is > 600 min.

A word on the IC50: it is the point on the concentration scale where inhibition reaches its midpoint. One may read the half-life as the time needed for the level to fall by half in the phase considered. Higher therefore signals slow loss.
